IC50 and inhibition in vivo data for 16 molecules are collected here from ChEMBL document CHEMBL4265881, “Synthesis and bioactivity of 3,5-dimethylpyrazole derivatives as potential PDE4 inhibitors” (Bioorg Med Chem Lett, 2018).

Test [1] deals with 3',5'-cyclic-AMP phosphodiesterase 4B (Homo sapiens, UniProt Q07343). In words: Inhibition of human U937 cells-derived PDE4B using [3H]-cAMP as substrate measured after 30 mins.
Test [2] is described as follows: Inhibition of PDE4 in human PBMC assessed as reduction in LPS-stimulated TNFalpha release preincubated for 30 mins followed by LPS stimulation for 18 hrs by TR-FRET assay. It counts as cell-based. (In general: Time-resolved FRET reads energy transfer from a long-lived donor to a nearby acceptor.)
Test [3] addresses 3',5'-cyclic-AMP phosphodiesterase 4D (Homo sapiens, UniProt Q08499). In words: Inhibition of human U937 cells-derived PDE4D using [3H]-cAMP as substrate measured after 30 mins.
Another test has as its system Rattus norvegicus. Put plainly: Anti-inflammatory activity in Sprague-Dawley rat model of LPS-induced asthma/COPD assessed as inhibition of neutrophilia in BALF at 10 mg/kg, po. It counts as functional.
In a further test the test system is Mus musculus. In words: Anti-inflammatory activity in Swiss albino mouse model of sepsis assessed as inhibition of LPS-induced TNFalpha release at 10 mg/kg, po. It counts as functional.

Broadly, the IC50 is the concentration at which inhibition is half-maximal. Broadly, the inhibition in vivo is the change of the read-out against control, counted positive when it falls.

Sequence of 3',5'-cyclic-AMP phosphodiesterase 4D (Q08499 whole entry): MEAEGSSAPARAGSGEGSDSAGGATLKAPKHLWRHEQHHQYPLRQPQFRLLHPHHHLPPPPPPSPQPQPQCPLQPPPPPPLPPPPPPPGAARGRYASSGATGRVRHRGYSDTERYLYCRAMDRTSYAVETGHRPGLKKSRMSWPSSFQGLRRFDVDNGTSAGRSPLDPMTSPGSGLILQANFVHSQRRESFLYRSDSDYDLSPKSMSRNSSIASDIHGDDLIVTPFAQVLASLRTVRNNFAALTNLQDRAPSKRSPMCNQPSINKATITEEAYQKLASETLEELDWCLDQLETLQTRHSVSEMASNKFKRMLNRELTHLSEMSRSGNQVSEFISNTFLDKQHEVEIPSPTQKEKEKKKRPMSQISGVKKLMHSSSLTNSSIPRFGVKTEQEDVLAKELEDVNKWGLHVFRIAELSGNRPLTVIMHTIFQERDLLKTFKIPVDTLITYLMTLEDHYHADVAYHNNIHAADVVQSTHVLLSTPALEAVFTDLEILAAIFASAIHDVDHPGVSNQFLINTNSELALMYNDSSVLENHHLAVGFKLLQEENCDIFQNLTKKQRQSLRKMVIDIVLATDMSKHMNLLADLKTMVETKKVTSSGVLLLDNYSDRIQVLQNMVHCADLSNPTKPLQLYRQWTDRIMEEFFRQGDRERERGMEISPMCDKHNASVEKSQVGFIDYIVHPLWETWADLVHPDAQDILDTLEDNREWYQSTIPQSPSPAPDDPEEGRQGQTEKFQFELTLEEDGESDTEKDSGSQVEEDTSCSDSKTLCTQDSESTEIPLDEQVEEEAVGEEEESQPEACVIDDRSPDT
Sequence of 3',5'-cyclic-AMP phosphodiesterase 4B (Q07343 whole entry): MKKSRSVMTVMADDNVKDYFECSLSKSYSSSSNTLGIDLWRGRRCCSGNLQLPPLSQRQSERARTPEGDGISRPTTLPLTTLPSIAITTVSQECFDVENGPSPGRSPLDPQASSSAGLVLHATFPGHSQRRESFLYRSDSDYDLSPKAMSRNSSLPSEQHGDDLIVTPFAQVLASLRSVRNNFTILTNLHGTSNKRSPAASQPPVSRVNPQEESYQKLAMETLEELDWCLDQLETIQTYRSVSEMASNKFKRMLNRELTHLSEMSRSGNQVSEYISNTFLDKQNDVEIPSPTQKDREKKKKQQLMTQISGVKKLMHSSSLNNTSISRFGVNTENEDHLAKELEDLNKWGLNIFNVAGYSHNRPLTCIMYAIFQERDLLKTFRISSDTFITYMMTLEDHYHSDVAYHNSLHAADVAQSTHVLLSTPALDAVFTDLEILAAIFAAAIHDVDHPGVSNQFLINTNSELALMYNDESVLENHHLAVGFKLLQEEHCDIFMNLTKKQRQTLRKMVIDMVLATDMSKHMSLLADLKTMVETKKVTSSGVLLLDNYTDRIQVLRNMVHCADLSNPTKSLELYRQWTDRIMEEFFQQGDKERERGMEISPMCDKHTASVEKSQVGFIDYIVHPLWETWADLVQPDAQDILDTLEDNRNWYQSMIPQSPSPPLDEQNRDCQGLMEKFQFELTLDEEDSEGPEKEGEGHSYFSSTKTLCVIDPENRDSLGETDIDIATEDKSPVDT

Turning to `Cc1cc(C)n(C(=O)c2ccc(-c3ccccc3F)o2)n1`, the IC50 in test [1] is 45.3 µM; in test [2] it was 98.2 µM.
For `Cc1cc(C)n(C(=O)c2ccc(-c3ccccc3[N+](=O)[O-])o2)n1`, the IC50 is 62.7 µM in test [1] and 168 µM in test [2].
Regarding `Cc1cc(C)n(C(=O)c2ccc(-c3ccc(Cl)cc3)o2)n1`, the IC50 in test [1] came to 3.9 µM; in test [2] it was 25.1 µM; in test [3], 26.4 µM.
For `COc1ccc(-c2ccc(C(=O)n3nc(C)cc3C)o2)cc1`, the IC50 came to 1.7 µM in test [1], 10.4 µM in test [2] and 9.6 µM in test [3]. Moreover, the inhibition in vivo at 10 mg/kg turned out to be 36.5% in the test on Rattus norvegicus and 43.1% with Mus musculus.
As for `Cc1cc(C)n(C(=O)c2ccc(-c3ccc(F)cc3)o2)n1`, the results for the IC50 in test [1], in test [2] and in test [3] were 7.2 µM, 24.3 µM and 49.3 µM, respectively.
On to `Cc1cc(C)n(C(=O)c2ccc(-c3ccccc3Cl)o2)n1`, for which the IC50 in test [1] stood at 52.4 µM; in test [2], 112 µM.
Regarding `Cc1cc(C)n(C(=O)c2ccc(-c3cccc(F)c3)o2)n1`, the IC50 in test [1] stood at 20.2 µM; in test [2], 70.8 µM.
The like results for `Cc1cc(C)n(C(=O)c2ccc(-c3cccc([N+](=O)[O-])c3)o2)n1` were, in that order, 35.9 µM and 69.3 µM.
As for `Cc1cc(C)n(C(=O)c2ccc(-c3ccc([N+](=O)[O-])cc3)o2)n1`, the results for the IC50 in test [1], in test [2] and in test [3] were 15.4 µM, 41.7 µM and 87.3 µM, respectively.
On to `Cc1cc(C)n(C(=O)c2ccc(-c3ccc(Br)cc3)o2)n1`, for which the values for the IC50 in test [1] and in test [2] were 51.1 µM and 154 µM, respectively.
As for `Cc1ccc(-c2ccc(C(=O)n3nc(C)cc3C)o2)cc1`, the IC50 is 8.4 µM in test [1], 37.1 µM in test [2] and 52.9 µM in test [3].
On to `Cc1cc(C)n(C(=O)c2ccc(-c3cccc(Cl)c3)o2)n1`, for which the half-inhibitory concentration (IC50) in test [1] came out at 20.9 µM; in test [2] it was 58.4 µM.
For the molecule `Cc1cc(C)n(C(=O)c2ccc(-c3ccc(F)cc3F)o2)n1`, the IC50 worked out at 3.2 µM in test [1], 19.2 µM in test [2] and 19.6 µM in test [3]. Besides, the inhibition in vivo at 10 mg/kg in the test with Rattus norvegicus stood at 24.2%; with Mus musculus it was 29.6%.
Take `Cc1cc(C)n(C(=O)c2ccc(-c3c(F)cccc3F)o2)n1`: the IC50 in test [1] amounted to 14.5 µM; in test [2], 88.7 µM; in test [3], 88.2 µM.
For `Cc1cc(C)n(C(=O)c2ccc(-c3ccccc3)o2)n1`, the IC50 in test [1] was 70.3 µM; in test [2] it was 178 µM.
For `COc1ccc(C2CNC(=O)C2)cc1OC1CCCC1` (centres undefined) [ROLIPRAM], the inhibition in vivo at 10 mg/kg in the test on Rattus norvegicus was found to be 32.8%; with Mus musculus, 41.7%. Further, the IC50 in test [2] was found to be 16.5 µM.
